The values below come from US8389513B2, “2-amino-5,5-difluoro-5,6-dihydro-4H-[1,3]oxazin-4-yl)-phenyl]-amides” (Hoffmann-La Roche Inc., priority 2009, dated 2013).

As a reminder, the IC50 is the concentration that gives 50% inhibition.

For one experiment, the target named is T1, BACE1 (Homo sapiens, UniProt P56817).
T1 construct: Human HEK293 cells which are stably transfected with a vector expressing a cDNA of the human APP wt gene (APP695); endogenous in cells; host or cells: HEK293 stably transfected with human APP695 wt
Briefly: Cellular Aβ-lowering assay (Aβ40 ELISA). Type of experiment: cell-based. To be noted: HEK293 cells stably expressing human APP695; Aβ40 in culture supernatant; read-out: BACE1 cell act. Aβ40 IC50. How it is done: Cellular Aβ-Lowering Assay:
Human HEK293 cells which are stably transfected with a vector expressing a cDNA of the human APP wt gene (APP695) were used to assess the potency of the compounds in a cellular assay. The cells were seeded in 96-well microtiter plates in cell culture medium (Iscove, plus 10% (v/v) fetal bovine serum, glutamine, penicillin/streptomycin) to about 80% confluence and the compounds were added at a 10× concentration in 1/10 volume of medium without FCS containing 8% DMSO (final concentration of DMSO was kept at 0.8% v/v). After 18-20 hrs incubation at 37° C. and 5% CO2 in a humidified incubator the culture supernatant was harvested for the determination of Aβ40 concentrations. […] Subsequently the wells of the microtiter plate were washed extensively with Tris-buffered saline containing 0.05% Tween 20 and the assay was developed with tetramethylbenzidine/H2O2 in citric acid buffer. After stopping the reaction with one volume 1 NH2SO4 the reaction was measured in an ELISA reader at 450 nm wavelength. The concentrations of Aβ in the culture supernatants were calculated from a standard curve obtained with known amounts of pure Aβ peptide.

For the next experiment, the target named is T2, BACE2 (Rattus norvegicus, UniProt Q6IE75).
T2 construct: endogenous cellular BACE2 in the Ins1e rat cell line; endogenous in cells; host or cells: INS-TMEM27 (INS1e-derived rat cell line with TetOn-inducible full-length hTMEM27)
T2 sequence (Q6IE75 63-514): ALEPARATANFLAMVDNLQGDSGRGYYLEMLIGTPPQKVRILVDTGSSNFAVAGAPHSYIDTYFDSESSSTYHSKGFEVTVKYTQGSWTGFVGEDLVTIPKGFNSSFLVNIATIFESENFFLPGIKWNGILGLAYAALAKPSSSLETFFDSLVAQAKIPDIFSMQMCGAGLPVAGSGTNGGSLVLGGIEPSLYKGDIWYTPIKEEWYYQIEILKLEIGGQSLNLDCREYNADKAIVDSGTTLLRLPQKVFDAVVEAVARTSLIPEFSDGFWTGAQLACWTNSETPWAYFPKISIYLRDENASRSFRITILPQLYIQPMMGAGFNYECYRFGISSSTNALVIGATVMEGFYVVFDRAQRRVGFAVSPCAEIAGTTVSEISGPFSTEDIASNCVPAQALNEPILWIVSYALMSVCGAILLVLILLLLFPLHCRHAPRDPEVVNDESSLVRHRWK
Briefly: Assay for BACE inhibition by measuring cellular TMEM27 cleavage. Type of experiment: cell-based. To be noted: INS-TMEM27 cells (INS1e-derived); shed TMEM27 by ELISA; read-out: BACE2 cell act. IC50. From the text: Assay for BACE Inhibition by Measuring Cellular TMEM27 Cleavage:
The assay uses the principle of inhibition of human TMEM27 cleavage by endogenous cellular BACE2 in the Ins1e rat cell line and shedding from the cell surface into the culture medium, followed by detection in an ELISA assay. Inhibition of BACE2 prevents the cleavage and shedding in a dose-dependent manner.
The stable cell line “INS-TMEM27” represents an INS1e-derived cell line with inducible expression (using the TetOn system) of full-length hTMEM27 in a doxycycline-dependent manner. The cells are cultured throughout the experiment in RPMI1640+Glutamax (Invitrogen) Penicillin/Streptomycin, 10% Fetal bovine serum, […] pyruvate, […] beta-mercatptoethanol, 100 micrograms/ml G418 and 100 microgram/ml hygromycin and are grown inadherent culture at 37° C. in a standard CO2 cell culture incubator. INS-TMEM27 cells are seeded in 96-well plates. After 2 days in culture, BACE2 inhibitor is added in a range of concentrations as required by the assay and after a further two hours, doxycycline is added to a final concentration of 500 ng/ml. The cells are incubated for a further 46 hours and the supernatant harvested for detection of shed TMEM27.
An ELISA assay (using a pair of mouse anti-human-TMEM27 antibodies, raised against the extracellular domain of TMEM27) is used for detection of TMEM27 in the culture medium. An EC50 for BACE2 inhibition is calculated using the ELISA readout for each inhibitor concentration with standard curve-fitting software such as XLFit for the Excel spreadsheet program.

T1 sequence (P56817 46-501): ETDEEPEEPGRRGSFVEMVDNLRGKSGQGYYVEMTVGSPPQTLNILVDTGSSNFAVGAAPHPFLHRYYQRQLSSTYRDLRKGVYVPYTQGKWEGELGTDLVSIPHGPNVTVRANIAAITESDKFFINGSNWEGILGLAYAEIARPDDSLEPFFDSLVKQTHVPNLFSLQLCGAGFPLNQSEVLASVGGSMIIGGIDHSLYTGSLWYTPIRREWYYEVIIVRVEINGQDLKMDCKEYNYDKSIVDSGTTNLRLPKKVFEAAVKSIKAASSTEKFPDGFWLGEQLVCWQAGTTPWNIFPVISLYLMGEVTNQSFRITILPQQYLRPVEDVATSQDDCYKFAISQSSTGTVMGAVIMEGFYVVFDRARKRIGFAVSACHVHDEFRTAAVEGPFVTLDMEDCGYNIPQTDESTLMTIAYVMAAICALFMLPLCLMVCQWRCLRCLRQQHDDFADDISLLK

With `CC1(C)OC(N)=N[C@](C)(c2cc(NC(=O)c3ncc(Cl)cc3Cl)ccc2F)C1(F)F` [Example 23, 3,5-Dichloro-pyridine-2-carboxylic acid [3-((R)-2-amino-5,5-difluoro-4,6,6-trimethyl-5,6-dihydro-4H-[1,3]oxazin-4-yl)-4-fluoro-phenyl]-amide], the IC50 at BACE1 was determined as 11 nM; on BACE2, 66 nM.
On to `Cc1cnc(C(=O)Nc2ccc(F)c([C@@]3(C)N=C(N)OC(C)(C)C3(F)F)c2)cn1` [Example 34, 5-Methyl-pyrazine-2-carboxylic acid [3-((R)-2-amino-5,5-difluoro-4,6,6-trimethyl-5,6-dihydro-4H-[1,3]oxazin-4-yl)-4-fluoro-phenyl]-amide], for which the IC50 on BACE1 turned out to be 43 nM; at BACE2, 3580 nM.
For `Cc1nc(C(=O)Nc2ccc(F)c([C@@]3(C)N=C(N)OCC3(F)F)c2)co1` [Example 58, 2-Methyl-oxazole-4-carboxylic acid [3-((R)-2-amino-5,5-difluoro-4-methyl-5,6-dihydro-4H-[1,3]oxazin-4-yl)-4-fluoro-phenyl]-amide], in that order: 15 nM and 25 nM.
For `C[C@]1(c2cc(NC(=O)c3ncc(Cl)cc3F)ccc2F)N=C(N)OCC1(F)F` [Example 15, 5-Chloro-3-fluoro-pyridine-2-carboxylic acid [3-((R)-2-amino-5,5-difluoro-4-methyl-5,6-dihydro-4H-[1,3]oxazin-4-yl)-4-fluoro-phenyl]-amide] the same measures were 9 nM and 52 nM.
For `Cc1nc(C(=O)Nc2ccc(F)c([C@@]3(C)N=C(N)OCC3(F)F)c2)c(C(F)(F)F)o1` [Example 60, 2-Methyl-5-trifluoromethyl-oxazole-4-carboxylic acid [3-((R)-2-amino-5,5-difluoro-4-methyl-5,6-dihydro-4H-[1,3]oxazin-4-yl)-4-fluoro-phenyl]-amide] the same measures were 88 nM and 367 nM.
As to `C[C@]1(c2cc(NC(=O)c3ccc(OCF)cn3)ccc2F)N=C(N)OCC1(F)F` [Example 42, 5-Fluoromethoxy-pyridine-2-carboxylic acid [3-((R)-2-amino-5,5-difluoro-4-methyl-5,6-dihydro-4H-[1,3]oxazin-4-yl)-4-fluoro-phenyl]-amide], the IC50 on BACE1 was determined as 29 nM; at BACE2, 300 nM.
Consider `Cn1ccc(C(=O)Nc2ccc(F)c([C@@]3(C)N=C(N)OCC3(F)F)c2)n1` [Example 63, 1-Methyl-1H-pyrazole-3-carboxylic acid [3-((R)-2-amino-5,5-difluoro-4-methyl-5,6-dihydro-4H-[1,3]oxazin-4-yl)-4-fluoro-phenyl]-amide], for which the values for the half-inhibitory concentration (IC50) at BACE1 and at BACE2 were 110 nM and 113 nM, respectively.
For `C[C@]1(c2cc(NC(=O)c3ncc(F)cc3Cl)ccc2F)N=C(N)OCC1(F)F` [Example 7, 3-Chloro-5-fluoro-pyridine-2-carboxylic acid [3-((R)-2-amino-5,5-difluoro-4-methyl-5,6-dihydro-4H-[1,3]oxazin-4-yl)-4-fluoro-phenyl]-amide], in that order: 41 nM and 49 nM.
For `CC1(C)OC(N)=N[C@](C)(c2cc(NC(=O)c3ccc(C(F)(F)F)cn3)ccc2F)C1(F)F` [Example 25, 5-Trifluoromethyl-pyridine-2-carboxylic acid [3-((R)-2-amino-5,5-difluoro-4,6,6-trimethyl-5,6-dihydro-4H-[1,3]oxazin-4-yl)-4-fluoro-phenyl]-amide] the same measures were 25 nM and 2250 nM.
For `CC1(C)OC(N)=N[C@](C)(c2cc(NC(=O)c3cnc(C(F)(F)F)cn3)ccc2F)C1(F)F` [Example 35, 5-Trifluoromethyl-pyrazine-2-carboxylic acid [3-((R)-2-amino-5,5-difluoro-4,6,6-trimethyl-5,6-dihydro-4H-[1,3]oxazin-4-yl)-4-fluoro-phenyl]-amide] the same measures were 40 nM and 4750 nM.
`CC1(C)OC(N)=N[C@](C)(c2cc(NC(=O)c3ccc(OCC(F)(F)F)cn3)ccc2F)C1(F)F` [Example 29, 5-(2,2,2-Trifluoro-ethoxy)-pyridine-2-carboxylic acid [3-((R)-2-amino-5,5-difluoro-4,6,6-trimethyl-5,6-dihydro-4H-[1,3]oxazin-4-yl)-4-fluoro-phenyl]-amide]: the IC50 at BACE1 is 140 nM; on BACE2 it was 44300 nM.
For `C[C@]1(c2cc(NC(=O)c3ncc(C(F)(F)F)cn3)ccc2F)N=C(N)OCC1(F)F` [Example 16, 5-Trifluoromethyl-pyrimidine-2-carboxylic acid [3-((R)-2-amino-5,5-difluoro-4-methyl-5,6-dihydro-4H-[1,3]oxazin-4-yl)-4-fluoro-phenyl]-amide], in that order: 91 nM and 1540 nM.
For the molecule `C[C@]1(c2cccc(NC(=O)c3ccc(Cl)cn3)c2)N=C(N)OCC1(F)F` [Example 52, 5-Chloro-pyridine-2-carboxylic acid [3-((R)-2-amino-5,5-difluoro-4-methyl-5,6-dihydro-4H-[1,3]oxazin-4-yl)-phenyl]-amide], the IC50 was 9 nM on BACE1 and 35 nM on BACE2.
With `CC1(C)OC(N)=N[C@](C)(c2cc(NC(=O)c3ncc(C(F)(F)F)cn3)ccc2F)C1(F)F` [Example 33, 5-Trifluoromethyl-pyrimidine-2-carboxylic acid [3-((R)-2-amino-5,5-difluoro-4,6,6-trimethyl-5,6-dihydro-4H-[1,3]oxazin-4-yl)-4-fluoro-phenyl]-amide], the IC50 at BACE1 was 29 nM; at BACE2, 2610 nM.
As to `CC1(C)OC(N)=N[C@](C)(c2cc(NC(=O)c3ccc(Cl)cn3)ccc2F)C1(F)F` [Example 19, 5-Chloro-pyridine-2-carboxylic acid [3-((R)-2-amino-5,5-difluoro-4,6,6-trimethyl-5,6-dihydro-4H-[1,3]oxazin-4-yl)-4-fluoro-phenyl]-amide], the IC50 on BACE1 turned out to be 70 nM; at BACE2, 120 nM.
For the molecule `Cc1cc(Cl)cnc1C(=O)Nc1ccc(F)c([C@@]2(C)N=C(N)OCC2(F)F)c1` [Example 13, 5-Chloro-3-methyl-pyridine-2-carboxylic acid [3-((R)-2-amino-5,5-difluoro-4-methyl-5,6-dihydro-4H-[1,3]oxazin-4-yl)-4-fluoro-phenyl]-amide], the IC50 on BACE2 amounted to 24 nM.
The same measure, in the same setting: to `C[C@]1(c2cc(NC(=O)c3ccn(C(F)F)n3)ccc2F)N=C(N)OCC1(F)F` [Example 64, 1-Difluoromethyl-1H-pyrazole-3-carboxylic acid [3-((R)-2-amino-5,5-difluoro-4-methyl-5,6-dihydro-4H-[1,3]oxazin-4-yl)-4-fluoro-phenyl]-amide] belongs 13 nM; to `Cn1cc(Cl)c(C(=O)Nc2ccc(F)c([C@@]3(C)N=C(N)OCC3(F)F)c2)n1` [Example 18, 4-Chloro-1-methyl-1H-pyrazole-3-carboxylic acid [3-((R)-2-amino-5,5-difluoro-4-methyl-5,6-dihydro-4H-[1,3]oxazin-4-yl)-4-fluoro-phenyl]-amide], 15 nM.
